Each compound was assayed on E. oblique (assay: Field trapping test with sex pheromone lures in traps, tea plantation). Conditions: lures with (3Z,6Z,9Z)-octadecatriene.
Type: in vivo, Ectropis oblique
Procedure: Embodiment 9: Field trapping tests were carried out at a tea plantation of Jintan Xinpin Tea Industry Co., Ltd., Changzhou City, Jiangsu Province. Sex pheromone lures used in the tests were made according to the schemes described in Embodiments 3-8, and a blank control was a lure made of n-hexane. The sex pheromone lure was used with a trap, each treatment process was repeated 3 times, and the number of trapped male pests in one month was counted.
Embodiment 50: Field trapping tests were carried out at the tea plantation of Jintan Xinpin Tea Industry Co., Ltd., Changzhou City, Jiangsu Province. Sex pheromone lures used in the test were made according to the schemes described in Embodiments 10-49, and a blank control was the lures made of n-hexane. The sex pheromone lures were used with a trap, each treatment process was repeated for 3 times, and the number of trapped insects in one month was counted.
Embodiment 53: Field trapping tests were carried out at the tea plantation of Jintan Xinpin Tea Industry Co., Ltd., Changzhou City, Jiangsu Province. Sex pheromone lures used in the test were made according to the schemes described in Embodiments 51-52, and a blank control was the lures made in Embodiment 12. The sex pheromone lure was used with a trap, each treatment process was repeated 3 times, and the number of trapped insects in one month was counted.
Embodiment 54: Field trapping tests were carried out at the tea plantation of Jintan Xinpin Tea Industry Co., Ltd., Changzhou City, Jiangsu Province. Sex pheromone lures used in the test were made according to the schemes described in Embodiment 12. The sex pheromone lure was used with a trap, each treatment process was repeated for 3 times, and the number of trapped insects in one month was counted.
`CC/C=C\C/C=C\C[C@H]1O[C@H]1CCCCCCCC` [(3Z,6Z,9R,10S)-9,10-epoxy-octadecadiene] was tested, and the “Trapping effect on E. oblique (in words)” value was “no trapping effect at all”.
For `CC/C=C\C/C=C\C[C@@H]1O[C@@H]1CCCCCCCC` [(3Z,6Z,9S,10R)-9,10-epoxy-octadecadiene], the “Trapping effect on E. oblique (in words)” value was “no trapping effect at all”.
In the case of `CC/C=C\C[C@H]1O[C@H]1C/C=C\CCCCCCCC` [(3Z,9Z,6R,7S)-6,7-epoxy-octadecadiene], the “Trapping effect on E. oblique (in words)” value is reported as “certain trapping capacity”.
With `CC/C=C\C[C@@H]1O[C@@H]1C/C=C\CCCCCCCC` [(3Z,9Z,6S,7R)-6,7-epoxy-octadecadiene] the “Trapping effect on E. oblique (in words)” value was “certain trapping capacity”.
With `CCCCCCCC/C=C\C/C=C\C[C@@H]1O[C@@H]1CC` [(6Z,9Z,3R,4S)-3,4-epoxy-octadecadiene] the “Trapping effect on E. oblique (in words)” value was “no trapping effect at all”.
For `CCCCCCCC/C=C\C/C=C\C[C@H]1O[C@H]1CC` [(6Z,9Z,3S,4R)-3,4-epoxy-octadecadiene], the “Trapping effect on E. oblique (in words)” value was “no trapping effect at all”.
